This is an account of results in patent publication US11406707B2, “STAT3 phosphorylation during graft-versus-host disease” (H. LEE MOFFITT CANCER CENTER AND RESEARCH INSTITUTE, INC., priority 2014, dated 2022).

The test system of data set [1] is DC-allosensitized T-cell proliferation. The data set can be described thus: allo-MLR T-cell proliferation (colorimetric MTS assay, stimulation index). The settings on record: CAS 285986-31-4 titration 0-100 μM, day 4. The data set is classed as cell-based, human. The protocol:
Allo-MLRs consisted of T cells stimulated by cytokine-mature moDCs (DC:T-cell ratio 1:30, 1×10^5 T cells per 100 μl medium in a 96-well plate, 37° C.). […] The allogeneic moDC stimulators were matured with a cytokine cocktail and terminally differentiated, eliminating the need for irradiation [Betts, B. C., et al. (2011) Blood 118, 5330-5339]. T-cell proliferation was quantified by a colorimetric assay (CellTiter 96 AQueous One Solution Cell Proliferation Assay [MTS]; Promega, Madison, Wis.) on day 5, per the manufacturer's instructions, with absorbance quantified at 490 nm [Betts, B. C., et al. (2011) Blood 118, 5330-5339]. The stimulation index was calculated by dividing the OD of the allo-MLR by the OD of T cells alone. PHA-stimulated T cells served as a positive control. Identical allo-MLRs were cultured with CAS 285986-31-4, to determine the dose-response effect of STAT5 inhibition on allostimulated T-cell growth. For these initial experiments, the cultures were analyzed on day 4 because of the early rapid T-cell proliferation among the STAT5 inhibitor-treated wells. The stimulation index was determined as described.

The next data set relates to T cells. The data set can be described thus: T-cell viability by Live/Dead staining in treated allo-MLRs. The settings on record: CAS 285986-31-4 1 μM. Format: cell-based, human. The protocol: Fluorochrome-conjugated mouse anti-human mAbs included anti-CD3, -CD4, -CD8, -CD25, -CD45RO, -CD107a, -CD127, -Foxp3, -pSTAT3/pY705, -pSTAT5/pY694, -IFN-, and -IL-17A (BD Biosciences, San Jose, Calif. USA; eBioscience; San Diego, Calif., USA; Invitrogen; Carlsbad, Calif., USA). Viability was assessed by Live/Dead staining (Invitrogen). Live events were acquired on FACSCalibur or LSRII (BD Biosciences) flow cytometers (FlowJo software, ver. 7.6.4; TreeStar, Ashland, Oreg., USA). Gates were defined by appropriate isotype controls. Naive T-cell sorting was performed on the FACSVantageDiVa (BD Biosciences). Where indicated, CD4^+ T cells were purified by magnetic-bead negative selection (Miltenyi Biotec, Auburn, Calif., USA).

The target of another data set is T1, STAT3 (Homo sapiens, UniProt P40763).
T1 construct: endogenous in cells; host or cells: primary human T cells from healthy-donor PBMC, allostimulated by monocyte-derived dendritic cells
T1 sequence (P40763 whole entry): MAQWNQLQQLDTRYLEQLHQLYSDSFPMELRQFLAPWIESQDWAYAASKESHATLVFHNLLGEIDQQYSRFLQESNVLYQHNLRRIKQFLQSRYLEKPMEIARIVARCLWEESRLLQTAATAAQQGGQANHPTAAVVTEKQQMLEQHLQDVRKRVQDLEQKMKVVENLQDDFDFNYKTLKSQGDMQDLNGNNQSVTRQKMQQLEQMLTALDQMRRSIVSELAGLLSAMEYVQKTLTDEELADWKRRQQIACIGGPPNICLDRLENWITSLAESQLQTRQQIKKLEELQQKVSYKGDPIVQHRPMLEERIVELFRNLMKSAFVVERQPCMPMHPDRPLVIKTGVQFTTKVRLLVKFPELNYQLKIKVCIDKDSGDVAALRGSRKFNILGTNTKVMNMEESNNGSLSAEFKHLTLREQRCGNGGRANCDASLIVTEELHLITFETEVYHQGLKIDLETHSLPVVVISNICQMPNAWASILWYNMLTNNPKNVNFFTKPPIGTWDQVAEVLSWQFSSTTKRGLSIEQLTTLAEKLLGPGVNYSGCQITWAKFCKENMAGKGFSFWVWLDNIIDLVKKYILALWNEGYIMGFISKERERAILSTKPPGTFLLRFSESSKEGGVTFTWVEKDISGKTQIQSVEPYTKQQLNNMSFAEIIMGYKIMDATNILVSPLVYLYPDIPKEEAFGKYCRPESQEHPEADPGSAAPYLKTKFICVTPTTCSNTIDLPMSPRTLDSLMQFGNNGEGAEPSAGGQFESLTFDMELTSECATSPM
The data set can be described thus: STAT3 phosphorylation in CD4+ T cells of 5 day allo-MLRs without exogenous cytokine. The settings on record: CAS 285986-31-4 1 μM, 5 day allo-MLR. The data set is classed as cell-based. The protocol:
(§1) No exogenous cytokine was added. DC-allosensitized T cells were harvested on day 5. […] The ratio of CD4^+, pSTAT5^Bright to CD4^+, pSTAT3^+ T cells was calculated by percentage of phosphorylation.

The next data set relates to STAT5. The data set can be described thus: STAT5 phosphorylation in CD4+ T cells of 5 day allo-MLRs without exogenous cytokine. The settings on record: CAS 285986-31-4 1 μM. The data set is classed as cell-based, human. The protocol:
as §1

The test system of a further data set is iTregs and Tconvs. The data set can be described thus: iTreg and Tconv expansion from DC-allostimulated naive CD4+ T cells. Format: cell-based, human. The settings on record: CAS 285986-31-4 1 μM. The protocol:
To evaluate iTreg development, naive CD4^+ cells were isolated from nylon-wool-eluted T cells by magnetic-bead selection (Miltenyi Biotec), based on the positive expression of CD4 and lack of CD45RO, CD25, or both. In addition, CD127 staining of the naive CD4^+ cells was performed after the purification, to ensure depletion of natural Tregs from the cell product. Negligible amounts of CD127^-, CD25^Bright nTregs were observed after magnetic-bead purification. […] The T cells were harvested and surface stained on day 5 for CD3, -4, -25, and -127, followed by fixation and permeabilization (eBioscience), and then intracellular staining for Foxp3 [Liu, W., et al. (2006) J. Exp. Med. 203, 1701-1711; […]., et al. (2006) J. Exp. Med. 203, 1693-1700]. Tregs were characterized by gating on the live cells expressing surface CD3^+, CD4^+, and absence of CD127, followed by expression of Foxp3 and CD25^bright [Liu, W., et al. (2006) J. Exp. Med. 203, 1701-1711; […]., et al. (2006) J. Exp. Med. 203, 1693-1700]. The absolute number of iTregs and Tconv (CD4^+ CD25^-) cells was obtained by timed acquisition. The ratio of iTreg:Tconv was calculated based on the absolute number of each T-cell population.

Another data set has as its system Foxp3 TSDR. The data set can be described thus: iTreg Foxp3 demethylation assay. Format: cell-based, human. The note with it: CAS 285986-31-4 1 μM. An excerpt:
iTreg Foxp3 demethylation assay. […] (2013) J. Immunol. 190, 3180-3188; Miyao, T., et al. (2012) Immunity 36, 262-275]. The degree of Foxp3 TSDR demethylation among iTregs from DMSO-treated allo-MLRs, purified nTregs, and Tconvs served as the controls [[…]., et al. (2013) Blood 122(13):2251-61]. For these experiments, iTregs and nTregs were sorted to select the CD4^+ CD25^+ CD127^- population. PCR products were amplified by using methylation or demethylation specific TSDR forward and reverse primers from bisulphate-treated genomic DNA of sorted natural Tregs. DNA fragments were cloned into a pCR2.1-Topo vector (Life Technologies, Grand Island, N.Y., USA) and verified by DNA sequencing. The following TSDR primers and probes were used for PCR: methylation forward [NT] ID NO:1), reverse [NT] ID NO:2), and hydrolysis probe [NT] (SEQ ID NO:3); and demethylation forward [NT] ID NO:4), reverse [NT] ID NO:5), and hydrolysis probe [NT] ID NO:6). Standards were diluted at concentrations ranging from 2^7 to 2^3 plasmid copies of each methylation or demethylation TSDR. Genomic DNA was isolated by using the DNeasy Blood and Tissue kit (Qiagen, Valencia, Calif., USA) from sorted natural or expanded iTregs. Genomic DNA (200-500 ng) was treated with bisulfite from the EZ DNA Methylation-Gold Kit (Zymo Research, Irvine, Calif., USA). […]

The subject of another data set is primed T-cells. The data set can be described thus: Secondary alloMLR (3-day restimulation of primed T-cells) proliferation. Format: cell-based, human. The note with it: Homo sapiens, T-cell; rapamycin 10 ng/ml; read-out: inhibition of proliferation in comparison to DMSO. An excerpt:
Bulk donor T-cells were allostimulated with cytokine-matured, allogeneic moDCs at a DC:T-cell ratio of 1:30 as previously described (Florida Blood Services) [Betts, B C, et al. (2011) Blood 118:5330-9; Betts, B C, et al. […] Betts, B C, et al. (2011) Blood 118:5340-3]. […] Lower doses of each drug were used in these experiments to mimic expected physiologic concentrations [Siddiquee, K, et al. (2007) Proceedings of the National Academy of Sciences of the United States of America 104:7391-6; Zeiser, R, et al. (2008) Blood 111:453-62], and to better detect potential synergistic activity with the combination of rapamycin and S3I-201. After 5 days of culture at […]-cell proliferation was measured by a colorimetric assay per the manufacturer's instructions (CellTiter 96 Aqueous One Solution Cell Proliferation Assay [MTS]; Promega, Madison, Wis. USA) [Betts, B C, et al. (2011) Blood 118:5330-9; Betts, B C, et al. […] Betts, B C, et al. (2011) Blood 118:5340-3]. Absorbance/optical density (OD) was analyzed at 490 nm. Secondary alloMLR: […] Following priming, the T-cells were then rested and re-cultured with fresh first-party moDCs (DC:T-cell ratio of 1:30). […] After 3 days, T-cell proliferation was measured by a colorimetric assay as described (Promega). T-cells alone and PHA-stimulated T-cells served as negative and positive controls, respectively, for both the primary and secondary alloMLRs.

Another data set concerns TH17 responses. The note with it: neutralization of IL-6, literature; cited from earlier work.
For data set [2] the following is noted: literature; cited from earlier work.

As for `O=C(N/N=C/c1coc2ccccc2c1=O)c1cccnc1` [CAS 285986-31-4], in [1], the “concentration achieving maximum allostimulated T-cell growth” value came to 1 µM. In the data set with T cells, the “toxic effects by viability staining” value is listed as “no toxic effects”. The STAT3 signaling result on STAT3 is “maintained intact”. Besides, in the data set on STAT5, the “ratio of CD4+, pSTAT5Bright to CD4+, pSTAT3+ T cells” value is listed as “significantly decreased”. In the data set with STAT5 (5 day allo-MLR), the “CD4+, pSTAT5Bright population” value was “selectively impaired” and the “overall geometric MFI of CD4+ STAT5 phosphorylation” value was “did not affect”. Further, in the data set with iTregs and Tconvs, the “allostimulated iTreg expansion” value is on record as “significantly decreased” and the “iTreg:Tconv ratio compared with DMSO or STAT3 inhibitor” value is given as “significant reduction”. Besides, the “iTreg Foxp3 demethylation” value in the data set on Foxp3 TSDR was “significant reduction”.
In the case of `CO[C@H]1C[C@@H]2CC[C@@H](C)[C@@](O)(O2)C(=O)C(=O)N2CCCC[C@H]2C(=O)O[C@H]([C@H](C)C[C@@H]2CC[C@@H](O)[C@H](OC)C2)CC(=O)[C@H](C)/C=C(\C)[C@@H](O)[C@@H](OC)C(=O)[C@H](C)C[C@H](C)/C=C/C=C/C=C/1C` [rapamycin], the inhibition at 0.01 µg/mL with primed T-cells is 69%.
For “tocilizumab: humanised IL-6 receptor-inhibiting monoclonal antibody”, the “reducing TH17 responses or enhancing Treg development” value in the data set on TH17 responses is reported as “insufficient”.
For “ustekinumab: monoclonal antibody targeting the p40-cytokines”, the “efficacy in refractory GVHD” value in data set [2] was “demonstrated efficacy”.
